Measured values from patent publication US8486962B2, “Antifungal agents” (F2G Ltd., priority 2005, dated 2013).
In brackets after ≈: the same amount, converted by molar mass.

Assays:
Assay type in all cases: cell-based
[1] = system: Aspergillus fumigatus AF293; assay: MIC, YAG medium, Aspergillus fumigatus AF293; conditions: Aspergillus fumigatus, AF293; YAG medium; read-out: MIC A Fum. 293
Summary of the method: (§1)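 Yeast: RPMI + 2% glucose + 0.135M MOPS pH7.0, 1-2×10^3 cfu/ml, 35° C 24-48 h, OD485, MIC at >80% inhib. Aspergillus: YAG (1% glucose, 1% NH4Cl, 0.5% yeast extract), spores 1-2×10^4 cfu/ml, 35° C 24 h, MIC at >70% inhib. Range 50-0.05 mg/L.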

Aspergillus flavus = assay: MIC, YAG medium, Aspergillus flavus; conditions: Aspergillus flavus; YAG medium; read-out: MIC A Flavus 01
Summary of the method: as §1

Aspergillus niger = assay: MIC, YAG medium, Aspergillus niger; conditions: Aspergillus niger; YAG medium; read-out: MIC A Niger 1
Summary of the method: as §1

Aspergillus terreus = assay: MIC, YAG medium, Aspergillus terreus; conditions: Aspergillus terreus; YAG medium; read-out: MIC A Terreus 4
Summary of the method: as §1

[2] = system: Aspergillus fumigatus AF210; assay: MIC, YAG medium, Aspergillus fumigatus AF210; conditions: Aspergillus fumigatus, AF210; YAG medium; read-out: MIC A Fum. 210
Summary of the method: as §1

SMILES	MIC [1] [µg/mL]	MIC (Aspergillus flavus) [µg/mL]	MIC (Aspergillus niger) [µg/mL]	MIC (Aspergillus terreus) [µg/mL]	MIC [2] [µg/mL]
COc1ccc(NC(=O)C(=O)c2c(-c3cccnc3)cc3ccccn23)c(OC)c1 [Example 174, N-(2,4-Dimethoxy-phenyl)-2-oxo-2-(2-pyridin-3-yl-indolizin-3-yl)-acetamide]	6.25 (≈ 15.6 µM)	0.1 (≈ 0.249 µM)	1.6 (≈ 3.99 µM)	0.2 (≈ 0.498 µM)	3.1 (≈ 7.72 µM)
Cc1ccc(NC(=O)C(=O)c2c(-c3ccco3)cc3ccccn23)cc1 [Example 168, 2-(2-Furan-2-yl-indolizin-3-yl)-2-oxo-N-p-tolyl-acetamide]	1.6 (≈ 4.65 µM)	0.4 (≈ 1.16 µM)	0.4 (≈ 1.16 µM)	1.6 (≈ 4.65 µM)	3.1 (≈ 9 µM)
COc1ccc(NC(=O)C(=O)c2c(-c3ccccc3)cc3cc(C)ccn23)cn1 [Example 193, N-(6-Methoxy-pyridin-3-yl)-2-(7-methyl-2-phenyl-indolizin-3-yl)-2-oxo-acetamide]	> 50	6.25 (≈ 16.2 µM)	> 50	0.8 (≈ 2.08 µM)	> 50
COc1cc(NC(=O)C(=O)c2c(-c3cccnc3)cc3ccccn23)cc(OC)c1OC [Example 226, 2-Oxo-2-(2-pyridin-3-yl-indolizin-3-yl)-N-(3,4,5-trimethoxy-phenyl)-acetamide]	> 50	1.6 (≈ 3.71 µM)	> 50	3.1 (≈ 7.19 µM)	> 50
Cc1ccc(NC(=O)C(=O)c2c(-c3ccccn3)cc3ccccn23)cc1 [Example 175, 2-Oxo-2-(2-pyridin-2-yl-indolizin-3-yl)-N-p-tolyl-acetamide]	> 50	> 50	> 50	3.1 (≈ 8.72 µM)	3.1 (≈ 8.72 µM)
CN(C)C(=O)C(=O)c1c(-c2ccccc2)cc2ccccn12 [Example 183, N,N-Dimethyl-2-oxo-2-(2-phenyl-indolizin-3-yl)-acetamide]	> 50	> 50	> 50	12.5 (≈ 42.8 µM)	25 (≈ 85.5 µM)
CN(C(=O)C(=O)c1c(-c2cccnc2)cc2ccccn12)c1ccccc1 [Example 187, N-Methyl-2-oxo-N-phenyl-2-(2-pyridin-3-yl-indolizin-3-yl)-acetamide]	> 50	> 50	3.1 (≈ 8.72 µM)	> 50	> 50
Cc1ccc(NC(=O)C(=O)c2c(-c3ccccc3)cc3cc(C)ccn23)cc1 [Example 191, 2-(7-Methyl-2-phenyl-indolizin-3-yl)-2-oxo-N-p-tolyl-acetamide]	3.1 (≈ 8.41 µM)	0.8 (≈ 2.17 µM)	1.6 (≈ 4.34 µM)	0.2 (≈ 0.543 µM)	3.1 (≈ 8.41 µM)
